Test results taken from patent US10028961B2, “Therapeutically active compounds and their methods of use” (AGIOS PHARMACEUTICALS, INC., priority 2013, dated 2018).
Like-named read-outs stand apart in the source and are kept apart here.

Key:
[1] = tested on: Neurosphere cells (TS603); test: Cellular assay for IDH1m R132H inhibitors, 2-HG by LC-MS in neurosphere cells (TS603); format: cell-based; conditions: 2-HG in media at 48 hours
In short: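 TS603 neurosphere cells in NeuroCult medium were dosed with compound (0.25% DMSO final) at 37 C, 5% CO2. After 48 hours, medium 2-HG was measured by LC-MS. At 72 hours, viability was read by CellTiter-Glo luminescence.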

HT1080 cells = test: Cellular assay for IDH1m R132C inhibitors, 2-HG by LC-MS in HT1080 cells; format: cell-based; conditions: Homo sapiens, HT-1080
Protocol: The following describes the experimental procedures that can be used to obtain data on column 5 of Table 4.
Cells (HT1080 or U87MG) are grown in T125 flasks in DMEM containing 10% FBS, 1× penicillin/streptomycin and 500 ug/mL G418 (present in U87MG cells only). They are harvested by trypsin and seeded into 96 well white bottom plates at a density of 5000 cell/well in 100 ul/well in DMEM with 10% FBS. No cells are placed in columns 1 and 12. Cells are incubated overnight at 37° C. in 5% CO2. The next day test compounds are made up at 2× the final concentration and 100 ul are added to each cell well. The final concentration of DMSO is 0.2% and the DMSO control wells are plated in row G. The plates are then placed in the incubator for 48 hours. At 48 hours, 100 ul of media is removed from each well and analyzed by LC-MS for 2-HG concentrations. The cell plate is placed back in the incubator for another 24 hours. At 72 hours post compound addition, 10 mL/plate of Promega Cell Titer Glo reagent is thawed and mixed. The cell plate is removed from the incubator and allowed to equilibrate to room temperature. Then 100 ul of Promega Cell Titer Glo reagent is added to each well of media. The cell plate is then placed on an orbital shaker for 10 minutes and then allowed to sit at room temperature for 20 minutes. The plate is then read for luminescence with an integration time of 500 ms.
HT1080 cells are maintained in RPMI containing 10% FBS, 1× penicillin/streptomycin. […] The next day compounds are prepared in 100% DMSO and then diluted in media for a final concentration of 0.2% DMSO. Media is removed from the cell plates and 200 μL of the compound dilutions are added to each well. […] The cell plates are then allowed to incubate another 24 hours.

IDH2 R140Q = IDH2 R140Q (Homo sapiens (Human), UniProt P48735, R140Q); test: In vitro assay for IDH2m R140Q inhibitors, cofactor depletion assay; format: biochemical; conditions: IDH2 R140Q enzyme
IDH2 R140Q, sequence (P48735 40-452 R140Q): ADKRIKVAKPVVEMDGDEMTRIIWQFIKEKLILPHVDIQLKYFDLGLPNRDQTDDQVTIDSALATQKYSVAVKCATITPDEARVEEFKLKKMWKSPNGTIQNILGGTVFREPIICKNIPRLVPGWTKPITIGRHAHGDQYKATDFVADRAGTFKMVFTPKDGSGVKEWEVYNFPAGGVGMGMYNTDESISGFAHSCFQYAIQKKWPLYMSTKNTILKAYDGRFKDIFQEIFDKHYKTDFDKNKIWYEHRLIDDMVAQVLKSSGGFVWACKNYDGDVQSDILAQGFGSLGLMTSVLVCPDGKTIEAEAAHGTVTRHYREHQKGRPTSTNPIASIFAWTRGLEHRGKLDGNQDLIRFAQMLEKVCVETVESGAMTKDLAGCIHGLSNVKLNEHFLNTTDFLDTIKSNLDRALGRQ
In short: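 Remaining cofactor measured fluorimetrically: diaphorase/resazurin Stop Mix […], halting the reaction. Before that, mutant enzyme and compound sat 1 h at RT, then substrate mix (4 μM NADPH, 1.6 mM α-KG) was added for 16 h at RT.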

[2] = target: IDH1 wt/IDH1 R132H heterodimer (Homo sapiens (Human), UniProt O75874, R132H); test: In vitro assay for IDH1m R132H inhibitors, IDH1 wt/IDH1 R132H heterodimer, NADPH depletion (diaphorase/resazurin); format: biochemical
IDH1 wt/IDH1 R132H heterodimer, sequence (O75874 whole entry R132H): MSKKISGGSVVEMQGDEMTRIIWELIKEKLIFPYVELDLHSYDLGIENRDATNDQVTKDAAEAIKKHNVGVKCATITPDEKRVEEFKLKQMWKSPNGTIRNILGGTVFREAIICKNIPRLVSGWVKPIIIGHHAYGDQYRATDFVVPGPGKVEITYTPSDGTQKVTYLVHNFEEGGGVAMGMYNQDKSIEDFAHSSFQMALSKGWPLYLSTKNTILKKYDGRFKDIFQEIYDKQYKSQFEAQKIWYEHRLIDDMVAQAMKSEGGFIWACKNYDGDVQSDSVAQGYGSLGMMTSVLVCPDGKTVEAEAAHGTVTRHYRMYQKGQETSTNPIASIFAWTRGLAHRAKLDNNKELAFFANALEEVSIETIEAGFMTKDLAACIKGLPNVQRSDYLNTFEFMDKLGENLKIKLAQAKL
IDH1 wt/IDH1 R132H heterodimer, sequence (O75874 whole entry, stated change not applied): as the sequence (O75874 whole entry R132H) above, with H132R counted along it
In short: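 Read-out is NADPH left after α-KG reduction to 2-HG, measured via resorufin fluorescence after 5 min diaphorase/resazurin step at 25° C. Enzyme is sf9-expressed IDH1wt-his/IDH1R132H-flag heterodimer, pre-incubated 1 hr at room temperature with compound and cofactor. IC50s from DMSO stocks diluted 1:50.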

[3] = target: IDH1-R132H homodimer enzyme (Homo sapiens (Human), UniProt O75874, R132H); test: In vitro assay IDH1-R132H homodimer, NADPH depletion assay with NADPH/NADP preincubation; format: biochemical; conditions: 5 μM NADPH and 37.5 μM NADP
IDH1-R132H homodimer enzyme, sequence (O75874 whole entry R132H): as the sequence (O75874 whole entry R132H) above
Protocol: The following describes the experimental procedures that can be used to obtain data on columns 3 and 5 of Table 5.
A test compound is prepared as 10 mM stock in DMSO and diluted to 50× final concentration in DMSO, for a 50 μl reaction mixture. IDH enzyme activity converting alpha-ketoglutarate to 2-hydroxyglutaric acid is measured using a NADPH depletion assay. In the assay the remaining cofactor is measured at the end of the reaction with the addition of a catalytic excess of diaphorase and resazurin, to generate a fluorescent signal in proportion to the amount of NADPH remaining. […] The reaction is started with the addition of 10 μl of Substrate Mix ([…], 5 mM alpha-ketoglutarate, in Assay Buffer) and the mixture is incubated for 60 minutes at room temperature.

[4] = tested on: U87MG pLVX-IDH2 R140Q-neo cells; test: U87MG pLVX-IDH2 R140Q-neo cell based assay, 2-HG by LC-MS; conditions: Homo sapiens, U-87 MG
[5] = IDH1 wt/R132H heterodimer, NADPH/NADP, not saturated, read-out: IDH1 wt/R132H NADPH/NADP IC50 not saturated

SMILES	IC50 [1]	IC50 (HT1080 cells)	IC50 (IDH2 R140Q)	IC50 ([2]; IDH1 wt/IDH1 R132H heterodimer, 300 μM NADP (saturated), read-out: IDH1 wt/R132H NADPH/NADP IC50 saturated)	IC50 [2, 5]	IC50 [3]	IC50 [4]
FC1(F)CC[C@@H](Nc2nc(Nc3ccnc(C(F)(F)F)c3)nc(-c3cncc(C(F)(F)F)n3)n2)C1 [Compound 116]	< 50 nM	100 to 1000 nM	< 50 nM	< 50 nM	< 50 nM	< 50 nM	< 50 nM
FC1(F)CCC(Nc2nc(Nc3ccnc(-c4ccccc4)c3)nc(-c3cccc(C(F)(F)F)n3)n2)CC1 [Compound 220]	< 50 nM	100 to 1000 nM	50 to 100 nM	–	< 50 nM	50 to 100 nM	50 to 100 nM
FC(F)c1cncc(-c2nc(NC3CCC(F)(F)CC3)nc(NC3CCC(F)(F)CC3)n2)n1 [Compound 186]	< 50 nM	100 to 1000 nM	< 50 nM	–	< 50 nM	100 to 1000 nM	< 50 nM
Fc1cc(F)cc(Nc2nc(NC3CCC(F)(F)C3)nc(-n3ccc(C(F)(F)F)n3)n2)c1 (stereo not shown) [Compound 108]	< 50 nM	50 to 100 nM	< 50 nM	–	< 50 nM	< 50 nM	< 50 nM
N#Cc1cc(F)cc(Nc2nc(NC3CC(F)(F)C3)nc(-c3nc(C(F)(F)F)cs3)n2)c1 [Compound 122]	< 50 nM	50 to 100 nM	< 50 nM	–	< 50 nM	< 50 nM	< 50 nM
Nc1ccc(F)c(-c2nc(Nc3cc(F)cc(F)c3)nc(NC3CCC(F)(F)CC3)n2)n1 [Compound 165]	< 50 nM	100 to 1000 nM	< 50 nM	–	< 50 nM	50 to 100 nM	< 50 nM
FC1(F)CC[C@@H](Nc2nc(N[C@H]3CCC(F)(F)C3)nc(-c3cccc(C(F)(F)F)n3)n2)C1 [Compound 102]	< 50 nM	< 50 nM	< 50 nM	–	< 50 nM	< 50 nM	< 50 nM
CC(Nc1nc(Nc2ccnc(C3(C#N)CC3)c2)nc(-n2ccc(C(F)(F)F)n2)n1)C(F)(F)F (stereo not shown) [Compound 201]	< 50 nM	50 to 100 nM	< 50 nM	–	< 50 nM	50 to 100 nM	< 50 nM
N#Cc1cc(Nc2nc(NC3CC(F)(F)C3)nc(-n3ccc(C(F)(F)F)n3)n2)ccn1 [Compound 210]	< 50 nM	100 to 1000 nM	< 50 nM	–	< 50 nM	50 to 100 nM	< 50 nM
CC(F)(F)c1cc(Nc2nc(NC3CCC(F)(F)C3)nc(-c3cccc(C(F)(F)F)n3)n2)ccn1 (stereo not shown) [Compound 163]	< 50 nM	100 to 1000 nM	< 50 nM	–	< 50 nM	50 to 100 nM	< 50 nM
CC(Nc1nc(Nc2ccnc(-c3ccccc3)c2)nc(-c2cccc(C(F)(F)F)n2)n1)C(F)(F)F (stereo not shown) [Compound 217]	< 50 nM	100 to 1000 nM	< 50 nM	–	< 50 nM	50 to 100 nM	< 50 nM
CC(Nc1nc(NC(C)C(F)(F)F)nc(-n2ccc(C(F)(F)F)n2)n1)C(F)(F)F (stereo not shown) [Compound 141]	< 50 nM	< 50 nM	< 50 nM	–	< 50 nM	< 50 nM	< 50 nM
CC(F)(F)c1cccc(-c2nc(Nc3ccnc(C4(C#N)CC4)c3)nc(NC3CCC(F)(F)CC3)n2)n1 [Compound 211]	< 50 nM	100 to 1000 nM	< 50 nM	–	< 50 nM	100 to 1000 nM	< 50 nM
FC1(F)CCC(Nc2nc(Nc3ccnc(-c4ccccc4)c3)nc(-c3cccc(C(F)(F)F)n3)n2)C1 (stereo not shown) [Compound 202]	< 50 nM	100 to 1000 nM	< 50 nM	–	< 50 nM	100 to 1000 nM	< 50 nM
